Assay results from EP1952812A1, “Drug for treating thalessemia, falciform anemia and all other forms of anemia treatable therewith” (Universita' Degli Studi di Ferrara, priority 2007, dated 2008).

Assays:
gamma-globin mRNA = gamma-globin mRNA production by quantitative RT-PCR in human erythroid precursors isolated from peripheral blood (two-step Fibach culture); type: cell-based; settings: for gamma-globulin mRNA: ratio of mRNA content in UVA-treated cells to that of UVA-untreated cells, cells treated for 6 days
Text: To verify if treatment with 8-meethoxypsoralen and trimethylangelicin photoactivated with UVA light was able to stimulate mRNA production for gamma-globin in human erythroid precursors isolated from peripheral blood, the method used was that described by Fibach et al. (Fibach E. Hemoglobin, 22: 445-458, 1998; Fibach E, Burke KP, Schechter AN, Noguchi CT & Rodgers GP. Blood, 81: 1630-1635, 1993). This method comprises two steps: the cells isolated from peripheral blood of a healthy subject or affected with a hemopoietic pathology, such as falciform anemia or beta-thalessemia, are seeded in culture medium to which 10% of conditioned medium deriving from the bladder carcinoma cell line 5637 is added. The second step consists of cultivating the isolated cells in a suitable culture medium to which erythropoietin hormone, 30% of bovine fetal serum, 2-mercapto-ethanol, albumin, glutamine and desametasone are added to enable proliferation and maturing of erythroid stem cells. In this step the cells can be treated with potential HbF inducers.
The gamma-globin mRNA production level is much higher than that encountered using hydroxyurea as inducer (Fibach E. Hemoglobin, 22: 445-458, 1998; Fibach E, Burke KP, Schechter AN, Noguchi CT & Rodgers GP. Blood, 81: 1630-1635, 1993).

K562 human cell line = assay: Erythroid differentiation of K562 cells (benzidine positivity), with or without UVA photoactivation; type: cell-based; settings: percentage of K562 cells positive to benzidine
Experimental: The evaluation of the biological activity of the treatment with psoralens photoactivated with UVA light was conducted by examining the capacity of these molecules to modulate the gamma-globin gene expression in the K562 human cell line, which is able to differentiate in the erythroid sense by expressing the gamma-globin genes if subjected to treatment with biological response modifiers suitable for the purpose (Lampronti I., Bianchi N Borgatti M., Fibach E.,Prus E.,Gambari R. Eur J Haematology 71 189-195 2003, Bianchi N, Ongaro F, Chiarabelli C, Gualandi L, Mischiati C, Bergamini P, Gambari R. Biochem Pharmacol, 60:31-40, 2000;Bianchi N, Osti F, Rutigliano C, Ginanni Corradini F, Borsetti E, Tomassetti M, Mischiati C, Feriotto G and Gambari R, British Journal of Haematology, 104:258-263, 1999).
The differentiation level was evaluated by analyzing the cell positivity to benzidine (Lampronti I., Bianchi N., Borgatti M., Fibach E., Prus E., Gambari R. Eur J Haematology 71 189-195 2003,).
The gamma-globin coding gene expression was evaluated by quantitative RT-PCR (reverse transcriptase PCR) (Lampronti I., Bianchi N Borgatti M., Fibach E.,Prus E.,Gambari R. Eur J Haematology. 71 189-195 2003) Some of the data obtained are reported in Table 1. As can be easily noted, treatment with different furocoumarin derivatives photoactivated with UVA light are able to induce an increase in the percentage of cells positive to benzidine (60-85% of the treated cells, compared with 5-17% of the K562 control cells treated with furocoumarin derivatives in the absence of UVA light). […] In the control not treated with furocoumarin derivatives, erythrolid differentiation is low (4-6%) both in the absence and in the presence of UVA light.

[1] = Homo sapiens, light or radiation study, 144 h, read-out: gamma-globin mRNA

SMILES	fold induction at 0.25 µM (gamma-globin mRNA; [1])	fold induction at 1 µM (gamma-globin mRNA; [1])	Erythroid differentiation with UVA (%) (K562 human cell line; concentration 0.25 µM)	Erythroid differentiation without UVA (%) (K562 human cell line; concentration 0.25 µM)	Erythroid differentiation with UVA (%) (K562 human cell line; concentration 0.50 µM)	Erythroid differentiation without UVA (%) (K562 human cell line; concentration 0.50 µM)	gamma-globulin mRNA (gamma-globin mRNA; concentration 0.10 µM)	gamma-globulin mRNA (gamma-globin mRNA; concentration 0.50 µM)
COc1c2occc2cc2ccc(=O)oc12 [Compound 8-MOP, 8-methoxypsoralen, reference compound]	2.76	18.5	65	17	–	–	–	–
O=c1ccc2ccc3occc3c2o1 [angelicin]	–	–	–	–	60	6	–	–
Cc1cc(=O)oc2c1cc(C)c1occ(C)c12 [trimethylangelicin]	–	–	–	–	85	5	9.56	12.86
